Measurements: patent publication US9765056B2, “Indole and pyrrole compounds, a process for their preparation and pharmaceutical compositions containing them” (LES LABORATOIRES SERVIER, priority 2013, dated 2017)

What was measured:
[1] = test system: cleaved form of caspase 3; test: Quantification of the cleaved form of caspase 3 in vivo (MSD ELISA) in RS4;11 xenograft tumour lysates; design: species or system mice (SCID strain); settings: oral route
Description: Quantification of the Cleaved Form of Caspase 3 In Vivo
The ability of the compounds of the invention to activate caspase 3 is evaluated in a xenograft model of RS4;11 leukaemia cells.
1×10^7 RS4;11 cells are grafted subcutaneously into immunosuppressed mice (SCID strain). 25 to 30 days after the graft, the animals are treated orally with the various compounds. After treatment, the tumour masses are recovered (after a time period T) and lysed, and the cleaved (activated) form of caspase 3 is quantified in the tumour lysates.
This quantification is carried out using the “Meso Scale Discovery (MSD) ELISA platform” test, which specifically assays the cleaved form of caspase 3. It is expressed in the form of an activation factor corresponding to the ratio between the quantity of cleaved caspase 3 in the treated mice divided by the quantity of cleaved caspase 3 in the control mice.

Bcl-2 protein = Bcl-2 protein (histag-Bcl-2, UniProtKB P10415) (Homo sapiens (Human), UniProt P10415); test: Inhibition of Bcl-2 by the fluorescence polarisation technique; format: binding; settings: fluorescence polarisation test; method A, or method B where underlined (underlining not visible); read-out: IC50 (nM) Bcl-2 FP
Text: Inhibition of Bcl-2 by the fluorescence polarisation technique

[2] = test system: RS4;11 leukaemia tumour line; test: In vitro cytotoxicity, Microculture Tetrazolium Assay (MTT); format: cell-based; settings: Homo sapiens; RS4;11 cells, 48 hours exposure
Description: The cytotoxicity studies were carried out on the RS4;11 leukaemia tumour line.
The cells are distributed onto microplates and exposed to the test compounds for 48 hours. The cell viability is then quantified by a colorimetric assay, the Microculture Tetrazolium Assay (Cancer Res., 1987, 47, 939-942).

[3] = 25 mg/kg, tumour removed after 2 h

Sequence of Bcl-2 protein (P10415 whole entry): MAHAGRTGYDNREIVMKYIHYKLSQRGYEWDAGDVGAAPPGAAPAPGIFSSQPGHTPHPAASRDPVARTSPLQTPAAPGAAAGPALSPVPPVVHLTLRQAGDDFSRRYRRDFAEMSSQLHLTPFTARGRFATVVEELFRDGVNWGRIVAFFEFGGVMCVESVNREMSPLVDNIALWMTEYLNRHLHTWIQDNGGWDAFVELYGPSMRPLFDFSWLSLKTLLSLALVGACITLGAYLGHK

Row | SMILES | IC50 (Bcl-2 protein) | Activation factor ± SEM (versus control), cleaved caspase 3 MSD test [1, 3] | IC50 [2] | Activation factor ± SEM (versus control), cleaved caspase 3 MSD test ([1]; 125 mg/kg, tumour removed after 2 h) | Activation factor ± SEM (versus control), cleaved caspase 3 MSD test ([1]; 100 mg/kg, tumour removed after 16 h)
1 | Cl.Cn1ccc2cc(N(C(=O)c3cn(-c4cc5c(cc4C(=O)N4Cc6ccccc6C[C@H]4CN4CCOCC4)OCO5)c4c3CCCC4)c3ccc(O)cc3)cnc21 [Example 207, N-(4-Hydroxyphenyl)-N-(1-methyl-1H-pyrrolo[2,3-b]pyridin-5-yl)-1-(6-{[(3S)-3-(morpholin-4-ylmethyl)-3,4-dihydroisoquinolin-2(1H)-yl]carbonyl}-1,3-benzodioxol-5-yl)-4,5,6,7-tetrahydro-1H-indole-3-carboxamide hydrochloride] | 20.3 nM | 14.6 ± 4.4 | 22.2 nM |  | 
2 | Cl.O=C(c1cn(-c2cc3c(cc2C(=O)N2Cc4ccccc4C[C@H]2CN2CCOCC2)OCO3)c2ccccc12)N(c1ccccc1)c1ccc(O)cc1 [Example 184, N-(4-Hydroxyphenyl)-1-{6-[(3S)-3-(morpholin-4-ylmethyl)-1,2,3,4-tetrahydroisoquinoline-2-carbonyl]-2H-1,3-benzodioxol-5-yl}-N-phenyl-1H-indole-3-carboxamide hydrochloride] | 14.1 nM |  | 154 nM |  | 15.1
3 | NC[C@@H]1Cc2ccccc2CN1C(=O)c1ccccc1-n1nc(C(=O)N(c2ccccc2)c2ccccc2)c2ccccc21 [Example 122, 1-{2-[(3S)-3-(Aminomethyl)-1,2,3,4-tetrahydroisoquinoline-2-carbonyl]phenyl}-N,N-diphenyl-1H-indazole-3-carboxamide] | 53.3 nM |  | 2290 nM |  | 
4 | Cc1cc(C(=O)N(c2ccccc2)c2ccc(O)cc2)cn1-c1cc(F)ccc1C(=O)N1Cc2ccccc2C[C@H]1CN1CCN(C)CC1 [Example 21, 1-(5-fluoro-2-{[(3S)-3-[(4-methylpiperazin-1-yl)methyl]-3,4-dihydroisoquinolin-2(1H)-yl]carbonyl}phenyl)-N-(4-hydroxyphenyl)-5-methyl-N-phenyl-1H-pyrrole-3-carboxamide] | 24.6 nM |  | 256 nM |  | 
5 | Cc1cc(C(=O)N(c2ccccc2)c2ccc(O)cc2)cn1-c1cc(Br)ccc1C(=O)N1Cc2ccccc2C[C@H]1CN1CCOCC1 [Example 42, 1-(5-Bromo-2-{[(3S)-3-(morpholin-4-ylmethyl)-3,4-dihydroisoquinolin-2(1H)-yl]carbonyl}phenyl)-N-(4-hydroxyphenyl)-5-methyl-N-phenyl-1H-pyrrole-3-carboxamide] | 23.1 nM |  | 353 nM |  | 
6 | CN1CCN(C[C@@H]2Cc3ccccc3CN2C(=O)c2cc3c(cc2-n2cc(C(=O)N(c4ccc(O)cc4)c4ccc(Cl)cc4)c4ccccc42)OCO3)CC1 [Example 31, N-(4-Chlorophenyl)-N-(4-hydroxyphenyl)-1-(6-{[(3S)-3-[(4-methylpiperazin-1-yl)methyl]-3,4-dihydroisoquinolin-2(1H)-yl]carbonyl}-1,3-benzodioxol-5-yl)-1H-indole-3-carboxamide] | 5.5 nM |  | 71.4 nM |  | 

Now those with a lower IC50 (Bcl-2 protein), led by results:

Row | IC50 (Bcl-2 protein) | SMILES | Activation factor ± SEM (versus control), cleaved caspase 3 MSD test [1, 3] | IC50 [2] | Activation factor ± SEM (versus control), cleaved caspase 3 MSD test ([1]; 125 mg/kg, tumour removed after 2 h) | Activation factor ± SEM (versus control), cleaved caspase 3 MSD test ([1]; 100 mg/kg, tumour removed after 16 h)
7 | 3.7 nM | Cc1c(C(=O)N(c2ccc(O)cc2)c2cc(C#N)n(C)c2C)cn(-c2cc(Cl)ccc2C(=O)N2Cc3ccccc3C[C@H]2CN2CCOCC2)c1C.Cl [Example 211, 1-(5-Chloro-2-{[(3S)-3-(morpholin-4-ylmethyl)-3,4-dihydroisoquinolin-2(1H)-yl]carbonyl}phenyl)-N-(5-cyano-1,2-dimethyl-1H-pyrrol-3-yl)-N-(4-hydroxyphenyl)-4,5-dimethyl-1H-pyrrole-3-carboxamide hydrochloride] | 94.7 ± 9.8 | 46.9 nM |  | 
8 | 3.1 nM | Cc1c(C(=O)N(c2ccc(O)cc2)c2cnc3c(c2)CCN3C)cn(-c2cc(Cl)ccc2C(=O)N2Cc3ccccc3C[C@H]2CN2CCOCC2)c1C.Cl [Example 210, 1-(5-Chloro-2-{[(3S)-3-(morpholin-4-ylmethyl)-3,4-dihydroisoquinolin-2(1H)-yl]carbonyl}phenyl)-N-(4-hydroxyphenyl)-4,5-dimethyl-N-(1-methyl-2,3-dihydro-1H-pyrrolo[2,3-b]pyridin-5-yl)-1H-pyrrole-3-carboxamide hydrochloride] |  | 64.7 nM | 36.3 ± 13.3 | 
9 | 3.7 nM | Cc1cc(C(=O)N(c2ccc(O)cc2)c2ccc(Cl)cc2)cn1-c1cc2c(cc1C(=O)N1Cc3ccccc3C[C@H]1CN1CCN(C)CC1)OCO2 [Example 85, N-(4-Chlorophenyl)-N-(4-hydroxyphenyl)-5-methyl-1-(6-{[(3S)-3-[(4-methylpiperazin-1-yl)methyl]-3,4-dihydroisoquinolin-2(1H)-yl]carbonyl}-1,3-benzodioxol-5-yl)-1H-pyrrole-3-carboxamide] |  | 129 nM |  | 
